{"source": "ChEMBL document CHEMBL3785061", "about": "“Evaluation of the anti-inflammatory action of curcumin analog (DM1): Effect on iNOS and COX-2 gene expression and autophagy pathways” (Bioorg Med Chem, 2016)", "key": {"Mus musculus [1]": {"test_system": "Mus musculus", "test": "In vivo inhibition of myeloperoxidase activity in bradykinin-induced Swiss mouse peritonitis model at 1 to 100 mg/kg, ip administered prior to bradykinin challenge for 4hrs", "format": "functional, organism-based"}, "Mus musculus [2]": {"test_system": "Mus musculus", "test": "Antiinflammatory activity in bradykinin-induced peritonitis Swiss mouse model assessed as decrease in total number of cells in pertonial cavity at 3 mg/kg, ip administered for 30 mins prior to bradykinin challenge", "format": "functional"}, "Mus musculus [3]": {"test_system": "Mus musculus", "test": "Antiinflammatory activity against carrageenan-induced paw edema in Swiss mouse at 3 mg/kg, ip measured at 15 to 90 mins administered 30 mins prior to carrageenan-challenge by plethysmometric analysis", "format": "functional"}, "Mus musculus [4]": {"test_system": "Mus musculus", "test": "Antiinflammatory activity against bradykinin-induced paw edema in Swiss mouse at 100 mg/kg, ip measured at 15 to 90 mins administered 30 mins prior to bradikynin-challenge by plethysmometric analysis", "format": "functional"}, "Mus musculus [5]": {"test_system": "Mus musculus", "test": "Antiinflammatory activity against substance-P-induced paw edema in Swiss mouse at 3 mg/kg, ip measured at 15 to 90 mins administered 30 mins prior to substance p-challenge by plethysmometric analysis", "format": "functional"}, "Mus musculus [6]": {"test_system": "Mus musculus", "test": "Antiinflammatory activity in carrageenan-induced Swiss mouse peritonitis model assessed as decrease in total number of cells in pertonial cavity at 3 mg/kg, ip administered for 4 hrs prior to carrageenan challenge", "format": "functional", "parameters": "scale not given: the % may be the effect or the level left"}, "Mus musculus [7]": {"test_system": "Mus musculus", "test": "In vivo inhibition of myeloperoxidase activity in carrageenan-induced Swiss mouse peritonitis model at 1 to 100 mg/kg, ip administered prior to carrageenan challenge for 4hrs", "format": "functional, organism-based"}, "Mus musculus [8]": {"test_system": "Mus musculus", "test": "Antiinflammatory activity in substance p-induced Swiss mouse peritonitis model assessed as decrease in total number of cells in pertonial cavity at 3 mg/kg, ip administered for 30 mins prior to substance-P challenge", "format": "functional"}, "RAW264.7 [9]": {"test_system": "RAW264.7", "test": "Inhibition of COX2 expression in LPS-stimulated mouse RAW264.7 cells at 12.5 to 50 ug/ml preincubated with the compound followed by LPS stimulation for 24 hrs by Real-Time PCR", "format": "functional, cell-based"}, "RAW264.7 [10]": {"test_system": "RAW264.7", "test": "Cytotoxicity against mouse RAW264.7 cells assessed as cell viability at 100 ug/ml after 24 hrs by MTT assay", "format": "cell-based", "details": "raw264.7, 24 h"}, "RAW264.7 [11]": {"test_system": "RAW264.7", "test": "Inhibition of iNOS expression in LPS-stimulated mouse RAW264.7 cells at 12.5 to 50 ug/ml preincubated with the compound followed by LPS stimulation for 24 hrs by Real-Time PCR", "format": "functional, cell-based"}, "A-375 [12]": {"test_system": "A-375", "test": "Induction of autophagy in human A375 cells assessed as increase in LC3-2 complex concentration at 65 uM after 1 hr by Western blot analysis", "format": "functional, cell-based"}, "A-375 [13]": {"test_system": "A-375", "test": "Induction of autophagy in human A375 cells assessed as increase in LC3-2 complex concentration at 65 uM after 6 hrs by Western blot analysis", "format": "functional, cell-based"}, "Mus musculus [14]": {"test_system": "Mus musculus", "test": "Antiinflammatory activity in carrageenan-induced Swiss mouse peritonitis model assessed as effect on total number of cells in peritonial cavity at 1 to 10 mg/kg, ip administered 30 mins prior to carrageenan challenge", "format": "functional, organism-based"}, "Mus musculus [15]": {"test_system": "Mus musculus", "test": "Antiinflammatory activity against carrageenan-induced paw edema in Swiss mouse at 10 mg/kg, ip measured at 15 to 90 mins administered 30 mins prior to carrageenan-challenge by plethysmometric analysis", "format": "functional"}, "Mus musculus [16]": {"test_system": "Mus musculus", "test": "Antiinflammatory activity against carrageenan-induced paw edema in Swiss mouse at 100 mg/kg, ip measured at 15 to 90 mins administered 30 mins prior to carrageenan-challenge by plethysmometric analysis", "format": "functional"}, "Mus musculus [17]": {"test_system": "Mus musculus", "test": "Antiinflammatory activity against bradykinin-induced paw edema in Swiss mouse at 10 mg/kg, ip measured at 15 to 90 mins administered 30 mins prior to bradikynin-challenge by plethysmometric analysis", "format": "functional"}, "Mus musculus [18]": {"test_system": "Mus musculus", "test": "Antiinflammatory activity against bradykinin-induced paw edema in Swiss mouse at 3 mg/kg, ip measured at 15 to 90 mins administered 30 mins prior to bradikynin-challenge by plethysmometric analysis", "format": "functional"}, "Mus musculus [19]": {"test_system": "Mus musculus", "test": "Antiinflammatory activity against substance-P-induced paw edema in Swiss mouse at 10 mg/kg, ip measured at 15 to 90 mins administered 30 mins prior to substance p-challenge by plethysmometric analysis", "format": "functional"}, "Mus musculus [20]": {"test_system": "Mus musculus", "test": "Antiinflammatory activity against substance-P-induced paw edema in Swiss mouse at 100 mg/kg, ip measured at 15 to 90 mins administered 30 mins prior to substance p-challenge by plethysmometric analysis", "format": "functional"}, "Mus musculus [21]": {"test_system": "Mus musculus", "test": "Antiinflammatory activity in carrageenan-induced Swiss mouse peritonitis model assessed as decrease in total number of cells in pertonial cavity at 100 mg/kg, ip administered 30 mins prior to carrageenan challenge", "format": "functional", "parameters": "scale not given: the % may be the effect or the level left"}, "Mus musculus [22]": {"test_system": "Mus musculus", "test": "Antiinflammatory activity in bradykinin-induced Swiss mouse peritonitis model assessed as decrease in total number of cells in pertonial cavity at 1 mg/kg, ip administered for 30 mins prior to bradykinin challenge", "format": "functional, organism-based"}, "Mus musculus [23]": {"test_system": "Mus musculus", "test": "Antiinflammatory activity in bradykinin-induced peritonitis Swiss mouse model assessed as decrease in total number of cells in pertonial cavity at 10 mg/kg, ip administered for 30 mins prior to bradykinin challenge", "format": "functional"}, "Mus musculus [24]": {"test_system": "Mus musculus", "test": "Antiinflammatory activity in bradykinin-induced peritonitis Swiss mouse model assessed as decrease in total number of cells in pertonial cavity at 100 mg/kg, ip administered for 30 mins prior to bradykinin challenge", "format": "functional"}, "Mus musculus [25]": {"test_system": "Mus musculus", "test": "Antiinflammatory activity in bradykinin-induced peritonitis ip dosed Swiss mouse model assessed as decrease in total number of cells in pertonial cavity administered for 4 hrs prior to bradykinin challenge", "format": "functional"}, "Mus musculus [26]": {"test_system": "Mus musculus", "test": "Antiinflammatory activity in substance p-induced Swiss mouse peritonitis model assessed as decrease in total number of cells in pertonial cavity at 1 to 10 mg/kg, ip administered for 30 mins prior to substance-P challenge", "format": "functional, organism-based"}, "Mus musculus [27]": {"test_system": "Mus musculus", "test": "Antiinflammatory activity in substance p-induced Swiss mouse peritonitis model assessed as decrease in total number of cells in pertonial cavity at 100 mg/kg, ip administered for 30 mins prior to substance-P challenge", "format": "functional"}, "RAW264.7 [28]": {"test_system": "RAW264.7", "test": "Inhibition of LPS-induced nitric oxide production in mouse RAW264.7 cells preincubated for 1 hr followed by LPS stimulation by Greiss assay", "format": "functional, cell-based"}}, "note": "Activity calls are given as the source filed them. No cut-off for these calls is given here."}
{"smiles": "CC(=O)OCC(=O)[C@@]12N=C(C)O[C@@H]1C[C@H]1[C@@H]3CCC4=CC(=O)C=C[C@]4(C)[C@H]3[C@@H](O)C[C@@]12C", "note": "[DEFLAZACORT]", "values": [{"measurement": "inhibition", "setting": "Mus musculus [1]", "value": "Active"}, {"measurement": "inhibition in vivo at 3 mg/kg", "setting": "Mus musculus [2]", "value": 46.2, "unit": "%"}, {"measurement": "inhibition in vivo at 3 mg/kg", "setting": "Mus musculus [3]", "value": 29.2, "unit": "%"}, {"measurement": "inhibition in vivo at 100 mg/kg", "setting": "Mus musculus [4]", "value": 30.1, "unit": "%"}, {"measurement": "inhibition in vivo at 3 mg/kg", "setting": "Mus musculus [5]", "value": 32.8, "unit": "%"}, {"measurement": "Activity", "setting": "Mus musculus [6]", "value": 57.1, "unit": "%"}, {"measurement": "inhibition", "setting": "Mus musculus [7]", "value": "Active"}, {"measurement": "inhibition in vivo at 3 mg/kg", "setting": "Mus musculus [8]", "value": 53.3, "unit": "%"}]}
{"smiles": "COc1cc(/C=C/C(=O)/C=C/c2ccc(O)c(OC)c2)ccc1[O-].[Na+]", "values": [{"measurement": "inhibition", "setting": "RAW264.7 [9]", "value": "Active"}, {"measurement": "Activity", "setting": "RAW264.7 [10]", "value": "Non-toxic"}, {"measurement": "inhibition", "setting": "RAW264.7 [11]", "value": "Active"}, {"measurement": "Activity", "setting": "A-375 [12]", "value": "Active"}, {"measurement": "Activity", "setting": "A-375 [13]", "value": "inactive"}, {"measurement": "Activity", "setting": "Mus musculus [14]", "value": "inactive"}, {"measurement": "inhibition", "setting": "Mus musculus [1]", "value": "Active"}, {"measurement": "inhibition in vivo at 10 mg/kg", "setting": "Mus musculus [15]", "value": 17.2, "unit": "%"}, {"measurement": "inhibition in vivo at 100 mg/kg", "setting": "Mus musculus [16]", "value": 18.9, "unit": "%"}, {"measurement": "inhibition in vivo at 10 mg/kg", "setting": "Mus musculus [17]", "value": 30.8, "unit": "%"}, {"measurement": "inhibition in vivo at 3 mg/kg", "setting": "Mus musculus [18]", "value": 39.2, "unit": "%"}, {"measurement": "inhibition in vivo at 10 mg/kg", "setting": "Mus musculus [19]", "value": 15.4, "unit": "%"}, {"measurement": "inhibition in vivo at 100 mg/kg", "setting": "Mus musculus [20]", "value": 31.5, "unit": "%"}, {"measurement": "Activity", "setting": "Mus musculus [21]", "value": 38.4, "unit": "%"}, {"measurement": "Activity", "setting": "Mus musculus [22]", "value": "inactive"}, {"measurement": "inhibition in vivo at 10 mg/kg", "setting": "Mus musculus [23]", "value": 65.4, "unit": "%"}, {"measurement": "inhibition in vivo at 100 mg/kg", "setting": "Mus musculus [24]", "value": 78.8, "unit": "%"}, {"measurement": "ED50", "setting": "Mus musculus [25]", "value": 7.6, "unit": "mg/kg"}, {"measurement": "inhibition", "setting": "Mus musculus [7]", "value": "Active"}, {"measurement": "Activity", "setting": "Mus musculus [26]", "value": "inactive"}, {"measurement": "inhibition in vivo at 100 mg/kg", "setting": "Mus musculus [27]", "value": 40, "unit": "%"}, {"measurement": "IC50", "setting": "RAW264.7 [28]", "value": 7.7, "unit": "µM"}]}
